US4866063A, “Diol metabolites of 7-phenyl-1,2,4-triazolo[2,3-c]pyrimidines-5-amines” (priority 1988, dated 1989)
Entries after “also recorded” stand apart in the source; their conditions may differ. Like-named read-outs stand apart in the source and are kept apart here.

Key:
[1] = Bioavailability compared with precursor compounds; type: in vivo; details: vs compounds I and II
[2] = Water solubility compared with precursor compounds; type: physicochemical; details: vs compounds I and II
[3] = tested on: heart or adrenal gland; experiment: Cardiotoxicity study of compound III in rats (gross and histologic examination, mortality); type: in vivo, female Charles River CD rats; details: conclusion of the study
Description: (§1) Compound III was administered by gavage at 40 mg/kg, 80 mg/kg, 160 mg/kg and 320 mg/kg to female Charles River CD rats (10/dosage) once daily for three days. One additional group of rats received vehicle for three days to serve as controls. […] Additional groups of rats (3/dosage) were sacrificed two hours after dosing on day 1, blood collected, and samples analyzed to determine plasma concentrations of compound III.

[4] = Plasma concentrations of compound III two hours after dosing on day 1; type: in vivo, female Charles River CD rats; details: for concentration at 2 h: rat, plasma, po, gavage, two hours after dosing on day 1
Description: as §1

[5] = rat, in vivo
[6] = Metabolism of compound II in man; type: in vivo
[7] = Metabolism of compound II in the rat; type: in vivo
[8] = Cardiotoxicity of compounds I and II in rats
[9] = cited from earlier work

| SMILES | Bioavailability relative to either precursor compound [1] | Water solubility relative to either precursor compound [2] | Cardiotoxicity [3] | Plasma concentrations relative to those expected at cardiotoxic dosages of compounds I and II ([4]; 40-320 mg/kg) | concentration at 2 h ([4]; 40 mg/kg) | concentration at 2 h ([4]; 80 mg/kg) | concentration at 2 h ([4]; 160 mg/kg) | concentration at 2 h ([4]; 320 mg/kg) | Myocardial lesions and associated changes [5] | Aliphatic hydroxylation (similar metabolism) [6] | Aliphatic hydroxylation (metabolism) [7] | Cardiotoxicity [8] | Glomerular filtration rate ([9]; acute, mammals) | Renal blood flow ([9]; acute, mammals) | Glomerular filtration rate ([9]; chronic oral dosing) | Renal blood flow ([9]; chronic oral dosing) | Sodium excretion ([9]; chronic oral dosing) |
| --- | --- | --- | --- | --- | --- | --- | --- | --- | --- | --- | --- | --- | --- | --- | --- | --- | --- |
| Nc1nc(-c2ccccc2)c(C(O)CO)c2ncnn12 (stereo not shown) [compound III, 8-(1,2-dihydroxyethyl)-7-phenyl-1,2,4-triazolo[2,3-c]pyrimidine-5-amine] | more bioavailable | more water soluble | does not appear to be cardiotoxic; also recorded: no incidence of cardiotoxic side effects in rats | well in excess of the concentrations that one might expect to see at cardiotoxic dosages of compounds I and II | 13800 ng/mL | 19800 ng/mL | 36700 ng/mL | 47000 ng/mL |  |  |  |  |  |  |  |  |  |
| Nc1nc(-c2ccccc2)c(CCO)c2ncnn12 [compound II, 8-(2-hydroxyethyl)-7-phenyl 1,2,4-triazolo[2,3-c]pyrimidine-5-amine] |  |  |  |  |  |  |  |  | myocardial lesions and associated changes found in rats | not seen in man | undergoes aliphatic hydroxylation in the rat | cardiotoxicity seen |  |  |  |  |  |
| CCOCCc1c(-c2ccccc2)nc(N)n2ncnc12 [compound I, 8-(2-ethoxyethyl)-7-phenyl-1,2,4-triazolo[2,3-c]pyrimidine-5-amine] |  |  |  |  |  |  |  |  | myocardial lesions and associated changes found in rats |  |  | cardiotoxicity seen | increases | increases | significant increases | significant increases | significant increases |
